Data taken from BindingDB's records for doi:10.1021/jm00095a025 (University of Uppsala, 1992).

target: Muscarinic acetylcholine receptor (Cavia porcellus, UniProt Q8VH26); assay: Muscarinic acetylcholine receptor M3 agonistic/antagonistic activity in guinea pig ileum
Sequence (Q8VH26 whole entry): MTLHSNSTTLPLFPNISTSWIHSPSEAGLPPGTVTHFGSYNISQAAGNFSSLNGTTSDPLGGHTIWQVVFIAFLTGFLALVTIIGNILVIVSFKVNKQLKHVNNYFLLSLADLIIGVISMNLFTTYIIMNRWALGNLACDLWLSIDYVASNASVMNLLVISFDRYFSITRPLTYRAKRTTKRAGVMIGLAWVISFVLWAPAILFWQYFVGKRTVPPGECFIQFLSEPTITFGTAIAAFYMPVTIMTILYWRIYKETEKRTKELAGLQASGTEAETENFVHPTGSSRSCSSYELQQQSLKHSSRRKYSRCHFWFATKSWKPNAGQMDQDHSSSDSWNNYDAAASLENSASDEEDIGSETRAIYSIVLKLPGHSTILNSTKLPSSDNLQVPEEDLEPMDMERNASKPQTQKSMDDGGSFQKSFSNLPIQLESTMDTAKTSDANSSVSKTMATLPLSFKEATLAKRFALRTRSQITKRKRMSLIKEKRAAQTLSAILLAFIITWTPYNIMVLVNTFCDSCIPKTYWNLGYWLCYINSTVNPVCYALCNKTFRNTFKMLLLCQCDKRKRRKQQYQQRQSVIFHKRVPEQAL

Q: Which EC50 does the source give for CC(C#CCN1CCCC1)N1CCCC1=O (stereo not drawn) here?
A: < 1 nM

Q: CC(C#CCN1CCCC1)N1CCNC1=O (stereo not drawn) was tested. Which EC50 did it give?
A: < 1 nM

Q: Which EC50 does the source give for CC(C#CCN1CCCC1)N(C)C(N)=O (stereo not drawn) here?
A: < 1 nM
